Paper PMC7408072 (Pharmaceutics, 2020)

Legend:
[1] = differentiation medium (cell media supplemented with 10% fetal bovine serum (FBS)); details: 37 °C, up to 4 h
[2] = luminal incubation on bovine brain endothelial cells co-cultured with rat astrocytes in FBS-free differentiation medium; details: 37 °C, up to 4 h
[3] = cited from earlier work
Protocol: Peptide-based drugs are prone to chemical degradation when presented to enzymes during systemic circulation. Therefore, the stability of the peptide constructs was examined in serum-supplemented media and during incubation in a state-of-the-art in vitro BBB model made up of primary BCECs co-cultured with primary rat astrocytes. Despite their common peptide nature, the stability varied markedly. […] The half-life of ^125I-labelled Tat ([…]) in mouse serum h ...

[4] = cited from earlier work; remark: listed apart in the source
Description: We detected 0.4% ± 0.1% of injected dose/g of TAMRA-Tat in mouse brain homogenate, which is in line with a previous study reporting 0.1% of injected dose/g of ^111In-DOTA-labelled Tat ([…]) following 1-h circulation in mice. Moreover, less TAMRA-Tat-NR2B9c and TAMRA-Tat-N-dimer appeared to accumulate in the brain compared to TAMRA-Tat. This observation is in agreement with the observed BBB permeation by the Tat-conjugated peptides in live mice, supporting our earlier notion that cargo conjugation to Tat impacts its resulting brain delivery.

[5] = test system: bovine BCECs co-cultured with rat astrocytes; assay: Peptide uptake into endothelial cells and astrocytes by confocal microscopy after fixation (bovine BBB model); type: cell-based; details: 10 µM or 100 µM TAMRA, 3 h, fixed cells, confocal microscopy (Figure S4)
Protocol: […] TEER was measured at room temperature using an Endohm 12 cup (World Precision Instruments, Sarasota, FL, USA) connected to a Millicell-ERS device (Millipore, Bedford, MA, USA). TEER was measured before application of the peptides and after each experiment. The bovine model had initial TEER values ranging from 771 to 1332 Ω·cm^2, whereas the mouse model had initial TEER values ranging from 136 to 217 Ω·cm^2.
To visualize the TAMRA-peptide taken up by the endothelial cells and astrocytes, the remaining filters (one per batch) from the permeation study using the in vitro bovine BBB model were prepared for confocal microscopy. After removal of the peptide solutions, the cells were fixed with 3% paraformaldehyde in PBS for 15 min at room temperature with horizontal shaking (90 rpm). The cells were washed thrice with PBS prior to permeabilization in 0.1% Triton X-100 in PBS for 5 min and blocking in 2% BSA in PBS for 30 min at room temperature with horizontal shaking (90 rpm). The filter inserts were cut out, divided into smaller pieces, and transferred to a 48-well plate to stain zonula ocludens-1 (ZO-1) in the BCECs and F-actin in the astrocytes. Filter pieces with BCECs facing upwards were incubated with a primary antibody directed against ZO-1 (1:100 in PBS with 2% BSA; Thermo Fischer Scientific, Bedford, MA, USA, no. 617300) for 2 h at room temperature. Subsequently, the filters were washed thrice for 5 min in PBS with 2% BSA prior to 30 min incubation with an Alexa-488-conjugated secondary antibody (1:100 in PBS with 2% BSA; Thermo Fischer Scientific, Bedford, MA, USA, no. A11008). Filter pieces with astrocytes facing upwards were incubated with Alexa-488-conjugated phalloidin (1:133 in PBS with 2% BSA; Thermo Fischer Scientific, Bedford, MA, USA) for 30 min at room temperature and washed thrice for 5 min in PBS with 2% BSA. The filter pieces were mounted on glass slides under coverslips using Immu-Mount™ mounting media and imaged using single wavelength excitation a Zeiss 510 laser-scanning confocal microscope (Carl Zeiss, Jena, Germany).

TAMRA-KLSSIESDV
not cleaved [1]: 92.0% ± 12.6% of the initial concentration remaining after 4 h | not cleaved [2]: 95.7% ± 1.6% remaining after 4 h

GRKKRRQRRRPPQ [^111In-DOTA-labelled Tat]
half-life in human serum [3]: 8.8 h | brain level following 1-h circulation in mice [4]: 0.1 % of injected dose/g

YGRKKRRQRRR [^125I-labelled Tat]
half-life in mouse serum [3]: 2.7 min

TAMRA [reference compound]
uptake of TAMRA as a single entity into the endothelial cells or the astrocytes [5]: not internalized
